Two compounds from patent publication US10385097B2, “Ether compounds for treatment of medical disorders” (Achillion Pharmaceuticals, Inc., priority 2015, dated 2019) can be followed below.

Each structure is given as a SMILES string.

This assay has as its target T1, Human Factor D (Homo sapiens, UniProt P00746).
T1 construct: purified from human serum; purchased Complement Technology, Inc; host or cells: human serum (natural protein, not recombinant)
Put plainly: Human Factor D Assay. To be noted: Table 3; Human Factor D 80 nM, substrate Z-L-Lys-SBzl; read-out: (IC50 (Stars)). The format is biochemical. In a few lines: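 Serum-purified factor D (80 nM final) preincubated 5 min at room temperature with compound in 50 mM Tris, 1 M NaCl, pH 7.5. Reaction started with 100 μM Z-L-Lys-SBzl plus 100 μM DTNB; A405 read every 30 s for 30 min; IC50 by nonlinear regression of rates.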

As usually defined, the IC50 is the concentration needed to halve the response being measured.

T1 sequence (P00746 26-253): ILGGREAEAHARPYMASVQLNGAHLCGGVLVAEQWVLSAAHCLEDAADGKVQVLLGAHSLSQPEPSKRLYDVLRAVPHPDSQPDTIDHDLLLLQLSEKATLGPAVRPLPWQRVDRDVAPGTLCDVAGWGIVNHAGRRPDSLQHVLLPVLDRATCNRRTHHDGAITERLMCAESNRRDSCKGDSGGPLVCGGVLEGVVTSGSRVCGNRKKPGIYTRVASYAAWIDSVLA

Turning to `CC(=O)c1cn(CC(=O)N2C[C@H](F)C[C@H]2C(=O)Nc2cccc(-c3ccccc3Cl)c2F)c2ccc(OCC[S+]([O-])CC3(C)COC3)cc12` (stereo partly drawn) [Compound 252, (2S,4R)-1-(2-(3-acetyl-5-(2-((3-methyloxetan-3-yl)methylsulfinyl)ethoxy)-1H-indol-1-yl)acetyl)-N-(2′-chloro-2-fluorobiphenyl-3-yl)-4-fluoropyrrolidine-2-carboxamide], the IC50 was under 1 µM. For `CC(=O)c1cn(CC(=O)N2C[C@H](F)C[C@H]2C(=O)Nc2cccc(-c3ccccc3Cl)c2F)c2ccc(OCCS(=O)(=O)CC3(C)COC3)cc12` [Compound 253, (2S,4R)-1-(2-(3-acetyl-5-(2-((3-methyloxetan-3-yl)methylsulfonyl)ethoxy)-1H-indol-1-yl)acetyl)-N-(2′-chloro-2-fluorobiphenyl-3-yl)-4-fluoropyrrolidine-2-carboxamide] the value was under 1 µM.
